The numbers were not newly measured in patent publication EP0356866A2, “Phosphorus-containing squalene synthetase inhibitors and method” (E.R. SQUIBB & SONS, INC., priority 1988, dated 1990), which cites them from elsewhere.

The structures appear in SMILES notation.

The target of this series is T1, avian liver farnesyl diphosphate synthetase (Gallus gallus, UniProt P08836).
T1 construct: host or cells: avian liver
T1 sequence (P08836 1-367): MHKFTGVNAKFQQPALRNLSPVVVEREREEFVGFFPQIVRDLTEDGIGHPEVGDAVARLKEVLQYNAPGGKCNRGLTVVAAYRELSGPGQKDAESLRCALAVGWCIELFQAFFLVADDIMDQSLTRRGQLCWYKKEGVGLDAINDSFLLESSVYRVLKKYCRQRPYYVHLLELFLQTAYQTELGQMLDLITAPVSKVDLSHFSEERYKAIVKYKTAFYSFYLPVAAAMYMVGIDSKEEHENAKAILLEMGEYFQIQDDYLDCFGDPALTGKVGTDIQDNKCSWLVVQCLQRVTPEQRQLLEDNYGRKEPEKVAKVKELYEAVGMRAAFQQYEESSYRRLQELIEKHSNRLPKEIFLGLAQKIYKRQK
The following applies: competitive inhibitors of the 1′-4-condensation between isopentenyl diphosphate and geranyl diphosphate.

In general, Ki refers to the dissociation constant of the complex between target and ligand, obtained from inhibition or displacement. With `C=C(C)CCCP(=O)(O)CP(=O)(O)O` [G], the inhibitory constant (Ki) was 19 µM. With `CC(C)=CCCP(=O)(O)CP(=O)(O)O` [H], the inhibition constant (Ki) is 71 µM.
